“Also recorded” adds a separate entry of the source.
Test system: retinal explant neurite outgrowth
Experiment: Retina (alone) explant culture with and without recombinant MHC I (rsMHC I)
Format: cell-based, mouse
Details: for neurite outgrowth with rsMHC I plus compound compared with control levels / neurite outgrowth in cultures containing rsMHC I, compound added vs rsMHC I alone: ACPD 50 uM, cAMP 20 uM, Forskolin 5 uM; for overall protection against the effects of rsMHC I (summary): FIG. 5; for neurite outgrowth in cultures containing rsMHC I, compound added vs rsMHC I alone: 3 days
Protocol: To rule out the possibility that the MHC I-tg thalami inhibit retinal growth indirectly due to an alteration in the milieu of neuroactive molecules they secrete, wt retinas were cultured alone, in the presence, or absence of recombinantly produced MHC I D^b (rMHC I). The rMHC I was obtained by transfecting COS cells with a recombinant plasmid that directs the expression of a MHC I D^b lacking a membrane anchor and harvesting the conditioned media.
A truncated MHC I ^Db mini-gene (containing exons 1-4 plus a stop codon) was subcloned into pIRES (Invitrogen). Due to the lack of a transmembrane spanning region (exons 5 and 6), this MHC I molecule is secreted. COS cells were transfected (using lipofectamine, GIBCO) with the parental plasmid, or the plasmid encoding soluble MHC I D^b. […] Forty eight hours later, the conditioned media was harvested and added to fresh explant co-cultures of wt retina and thalamus at final dilutions of 1:1, 1:4, 1:20 or 1:100. To some cultures, monoclonal antibodies to MHCI D^b or D^k were added to both the matrigel (before its solidification) and the media (0.005 mg/ml). Both the conditioned media and the antibodies were coded. The co-cultures were incubated for 4-5 days, fixed, and scored in a blinded fashion as described above. Duplicates of each group were tested simultaneously in 4 separate experiments.
E14 day embryos from C57Bl6 and Balb/c mice were dissected in Leibovitz's L-15 media (Gibco BRL). The retinas were isolated and placed in a matrigel matrix (Growth Factor Reduced Basement membrane matrix, Collaborative Biomedical Products) in a chamber slide (Fisher LabTech). The slides were then incubated at 37° C. for 60 minutes to solidify the gel. Neurobasal medium (Gibco BRL), containing L-glutamine, antibiotics and 1× B27 supplement) was added to each chamber (0.25 ml). Inhibition of axon outgrowth by rsMHC I was tested by addition of conditioned culture media from COS cells containing rsMHC I or control media to the normal culture media. Compounds that modulate cAMP levels were added at the following concentrations to the matrigel and the culture media: Forskolin (5 uM), a drug that activates adenyl cyclase and endogenous production of cAMP; and Rp-cAMPS (20 uM), the R diasteriomer of adenosine 3′,5′-(cyclic) phosphorothioate, a non-hydrolyzable antagonist of cAMP. The cultures were incubated further at 37° C., 5% CO2. After incubating for 3 days, the experiment was terminated by replacing the buffer with 4% PFA and storing the slides at 4° C. Statistical Analysis was done by Student's test.

Compound	neurite outgrowth with rsMHC I plus compound compared with control levels	overall protection against the effects of rsMHC I (summary)	neurite outgrowth in cultures containing rsMHC I, compound added vs rsMHC I alone (Rp-cAMPS 20 uM)	retinal explant outgrowth in control cultures (media alone, no rsMHC I) (Rp-cAMPS 20 uM)	neurite outgrowth in cultures containing rsMHC I, compound added vs rsMHC I alone (Rp-cAMPS 20 uM, listed as Rp-cAMPs)
Nc1ncnc2c1ncn2[C@@H]1O[C@@H]2COP(=O)(O)O[C@H]2[C@H]1O [cAMP, cyclic adenosine monophosphate]	not statistically different from control levels	partially protective	significantly enhanced neurite outgrowth; also recorded: partially neutralize the inhibitory action of rMHC I	–	–
N[C@@]1(C(=O)O)CC[C@@H](C(=O)O)C1 [ACPD, 1-amino-(1S,3R)-cyclo pentanedicarboxylic acid]	did not return to control levels	partially protective	significantly enhanced neurite outgrowth; also recorded: partially neutralize the effects of rsMHC I	–	–
Nc1ncnc2c1ncn2[C@@H]1O[C@@H]2CO[P@@](O)(=S)O[C@H]2[C@H]1O [Rp-cAMPS, R diasteriomer of adenosine 3′,5′-(cyclic) phosphorothioate]	–	very efficient at blocking the effects of rsMHC I	completely prevented the inhibitory effects of rsMHC I; also recorded: can reverse this inhibitory effect	no effect	completely prevented the inhibitory effects of rMHC I; also recorded: prevented the inhibitory action of rMHC I

Source: patent US7553484B2, “Modulating neuronal outgrowth via the major histocompatibility complex class I (MHC I) molecule” (The Regents of the University of California, priority 2001, dated 2009)
